Source: patent publication US7262206B2, “Cycloalkyl—containing 5-acylindolinones, the preparation thereof and their use as medicaments” (Boehringer Ingelheim International GmbH, priority 2004, dated 2007)

What was measured:
[1] = system: db/db mice; assay: Oral glucose tolerance test; assay type: in vivo; details: fasted db/db mice, 2 g/kg oral glucose 30 minutes after substance
Procedure: Oral Glucose Tolerance Test
Fasted db/db mice 7 to 9 weeks old (Janvier, France) are weighed and blood is taken from the tip of the tail. This blood is used for the first measurement of glucose on the basis of which the animals are randomised and divided into groups. The test substance to be tested may be given either orally or i.p. as a suspension in 0.5% Natrosol. 30 minutes after the administration of the substance the animals are given orally 2 g/kg glucose in a volume of 0.1 ml/100 g body weight dissolved in NaCl solution. Subsequently, the glucose values are determined from the tail blood using a glucometer (Ultra OneTouch, Lifescan) at specific time intervals [30, 60, 120 and 180 minutes after oral administration of the glucose].

[2] = system: rats; assay: Tolerability after oral administration to rats (behaviour); assay type: in vivo; details: oral administration of 10 mg/kg

CC(=O)c1ccc2c(c1)/C(=C(/NC1CCN(C)CC1)c1ccc3c(c1)OCO3)C(=O)N2 [Example 1, 5-Acetyl-3-[(benzo[1,3]dioxol-5-yl)-(1-methyl-piperidin-4-ylamino)-methylidene]-2-indolinone]
activity in the oral glucose tolerance test [1]: significant activity | changes in the animals' behaviour [2]: no changes were observed in the animals' behaviour
